Source: patent publication US20080038382A1 (priority 2004, published 2008)
Where two headings read alike, the source gives them in different places.

Key:
SARS-CoV = settings: background, cited sources; cited from earlier work
SARS CoV = type: cell-based; settings: for mean number of plaques: 3 days incubation at 37° C., vero C1008 cells; for plaques as % of virus control: virus control = 100%
RSV S2 = type: cell-based; settings: 100 μg/ml

CCOC(=O)/C=C/[C@H](C[C@@H]1CCNC1=O)NC(=O)[C@@H](CC(=O)[C@@H](NC(=O)c1cc(C)on1)C(C)C)Cc1ccc(F)cc1 [AG7088]
activity against SARS virus (reported in literature/news) (SARS-CoV): failed to inhibit virus

Cc1cccc(C)c1OCC(=O)N[C@@H](Cc1ccccc1)[C@@H](O)C[C@H](Cc1ccccc1)NC(=O)[C@H](C(C)C)N1CCCNC1=O [Lopinavir]
activity against SARS virus (reported in literature/news) (SARS-CoV): partially active

Cc1c(O)cccc1C(=O)N[C@@H](CSc1ccccc1)[C@H](O)CN1C[C@H]2CCCC[C@H]2C[C@H]1C(=O)NC(C)(C)C [Nelfinavir]
activity against SARS virus (reported in literature/news) (SARS-CoV): partially active

NC(=O)c1ncn([C@@H]2O[C@H](CO)[C@@H](O)[C@H]2O)n1 [Ribavirin]
activity against SARS virus (reported in literature/news) (SARS-CoV): appear to be efficacious | mean number of plaques (SARS CoV; Ribavirin 10 μg/ml): mean 114.75 | plaques as % of virus control (SARS CoV; Ribavirin 10 μg/ml): (97.5%) | mean number of plaques (SARS CoV; Ribavirin 100 μg/ml): mean 87.25 | plaques as % of virus control (SARS CoV; Ribavirin 100 μg/ml): (74.1%) | plaque size compared with controls (SARS CoV; higher concentrations (Ribavirin 100 μg/ml, PYN5C 200 μg/ml)): smaller than for the controls | protection of the cells against RSV (RSV S2): did not protect

CC1(C)[C@@H](O[C@H]2O[C@H](C(=O)O)[C@@H](O)[C@H](O)[C@H]2O[C@@H]2O[C@H](C(=O)O)[C@@H](O)[C@H](O)[C@H]2O)CC[C@]2(C)[C@H]3C(=O)C=C4[C@@H]5C[C@@](C)(C(=O)O)CC[C@]5(C)CC[C@@]4(C)[C@]3(C)CC[C@@H]12 [glycyrrhizin]
activity against SARS virus (reported in literature/news) (SARS-CoV): appear to be efficacious
